US8022075B2, “Diagnostic and remedy for disease caused by amyloid aggregation and/or deposition” (Fujifilm Ri Pharma Co., Ltd., priority 2005, dated 2011)
Like-named read-outs stand apart in the source and are kept apart here.

How the values were obtained:
Amyloid β (1-40) peptide [1] = biological target: T1, Amyloid β (1-40) peptide (Homo sapiens, UniProt P05067); assay: Inhibitory activity on formation of amyloid from amyloid β protein (thioflavin T method); format: biochemical; conditions: amyloid β (1-40) 15 μmol/L, PBS(−), room temperature, one day; read-out: Aggregation inhibitory activity IC50 A β 1-40
T1 construct: amyloid β (1-40) peptide hydrochloric acid salt; host or cells: chemically synthesised peptide
T1 sequence (P05067 672-711 limits assumed): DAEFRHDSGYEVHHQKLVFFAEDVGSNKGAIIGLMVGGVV
Experimental: Amyloid β (1-40) peptide hydrochloric acid salt (product of PEPTIDE […], INC.) (15 μmol/L) and a test substance (1.6, 8, or 40 μmol/L) were incubated in PBS(−) at room temperature for one day. Thereafter, the amount of formed amyloid was measured through the thioflavin T method. […] As is clear from table 3, aggregation of amyloid β (1-40) can be prevented by the compound of the present invention.

[2] = biological target: T2, synthetic amyloid β (1-40) aggregates (Homo sapiens, UniProt P05067); assay: Inhibition of binding of compound 23 to amyloid β protein aggregates; parameters: amyloid β (1-40) peptide hydrochloric acid salt; host or cells: chemically synthesised peptide; conditions: binding of 125I-labeled compound 23 to A β 1-40 aggregates, room temperature, three hours
T2 sequence (P05067 672-711 limits assumed): as above
Experimental: Synthetic A β peptides in a solution form undergo spontaneous aggregation in a test tube, to thereby form aggregates having the same β-sheet structure as that of amyloid aggregates present in a brain suffering from Alzheimer's disease (hereinafter, such a brain is referred to as an “Alzheimer brain”).
After ultrasonication, the mixture was gently stirred at 37° C. for four days, to thereby produce synthetic amyloid β (1-40) aggregates.
Binding test was performed in the following manner. Firstly, PBS (500 μL) and 0.2% BSA/PBS solution (100 μL) were added to test tubes. […] Reaction was initiated by adding a synthetic amyloid β (1-40) aggregates solution (concentration: 500 nmol/L, adjusted by PBS) (200 μL) to each test tube.
These samples were incubated at room temperature for three hours, and each reaction mixture was filtered by means of a cell harvester (M-24R, product of Brandel) by use of a Whatman GF/B filter (product of Whatman). The filter was washed thrice with ice-cooled PBS solution (about 2 mL) containing 0.1-mmol/L ascorbic acid.
Activity values were calculated by means of a GraphPad Prism Ver.

[3] = standard substances of liposolubility; values reported in the literature; cited from earlier work
[4] = biological target: T3, amyloid β (1-40) aggregates formed in PBS and in MES (Homo sapiens, UniProt P05067); assay: Correlation of β sheet amount in aggregates to binding amount of compound 23; conditions: mixtures of PBS aggregates and MES aggregates (FIG. 4)
T3 construct: amyloid β (1-40) peptide hydrochloric acid salt; host or cells: chemically synthesised peptide
T3 sequence (P05067 672-711 limits assumed): as above
Source text: In order to confirm that binding of compound 23 is promoted in accordance with the β-sheet structure amount, binding amount was compared among amyloid β aggregates having different β-sheet contents.
It has already reported by Wood et al. that amyloid β (1-40) aggregated in an acidic medium assumes large aggregates having a small β-sheet structure content, and that the structure is unchanged even in a neutral pH medium (Wood S. J., J. Mol. Biol. 256(5): 870-877). According to this report, synthetic amyloid β (1-40) aggregates were prepared in PBS in a manner similar to that of Test Example 2, and such aggregates were also prepared in MES (2-morpholinoethansulfonate) buffer in a similar manner.
These samples were further diluted with PBS to 40 μmol/L. Also a PBS aggregates sample and a MES aggregates sample were diluted with PBS to 40 μmol/L respectively.
The β-sheet content of aggregate mixture samples was determined through the thioflavin T method.
The binding amount of compound 23 to an aggregate mixture (aggregates formed in PBS and those formed in MES) was determined in a manner similar to that of Test Example 5 (binding to amyloid).

[5] = biological target: Whole protein of human Alzheimer lesion origin (temporal cortex) (Homo sapiens, UniProt P05067); assay: Calculation of binding affinity by use of Alzheimer brain; conditions: Alzheimer brain homogenate
Sequence of Whole protein of human Alzheimer lesion origin (temporal cortex) (P05067 672-713): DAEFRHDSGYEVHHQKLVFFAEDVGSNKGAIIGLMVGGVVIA
Experimental: Whole protein of human Alzheimer lesion origin (temporal cortex), a commercial product of Biochain (US), was employed.
An Alzheimer brain homogenate diluted with PBS was added to each test tube, to thereby initiate reaction.
4.00 (GraphPad Software, Inc.), to thereby calculate binding parameters (Kd, Bmax).

[6] = Distribution in rat body (radioactivity in the brain); format: in vivo, Wistar male rats; conditions: caudal vein
Experimental: Wistar male rats (purchased from Japan SLC, Inc.) were conditioned for seven days, maintaining water and chow (commercial solid chow: F-2, product of Funabashi Farm) ad libitum, and the non-fasting rats were employed in the experiment (8-week-old at experiment).
Each of compound 23, compound 24, and [^125I]-IMPY was dissolved in a solution containing 40 mM ascorbic acid and 0.1% Tween80, to thereby adjust the concentration to 100 μCi/200 μL. Each sample was administered to each rat through the caudal vein under non-anesthetization. […] The brain was cut into the left and right parts, and each part was weighed. The right brain was placed in a vial, and radioactivity was measured by means of a gamma counter. The radioactivity relative to the administration amount was calculated. Specifically, radioactivity of the tissue and that divided by the tissue weight were calculated as % I.D. and % I.D./g-tissue weight, respectively.

[7] = In vitro metabolism rate by use of liver microsomes, mouse; format: in vitro ADME, Male CD1 mouse
Experimental: (§1) Liver microsomes (Pooled human Liver Microsomes, Male CD1 mouse, Male Wistar Rat), which is a commercial product of In Vitro Technologies, were employed.
(§2) Each of compound 23, compound 24, and [^125I]-IMPY was dissolved in Milli Q water, to thereby adjust the concentration to 11 μCi/mL (5 nmol/L).
(§3) To a mixture of 100 mM glucose 6-phosphate and […] NADPH solution, an equal volume of […] magnesium chloride was added. Glucose 6-phosphate dehydrogenase was employed at a final concentration of 10 unit/mL. These components were reconstituted upon use.
(§4) Method: To each of the glass test tubes, […] EDTA/0.33M potassium phosphate buffer (150 μL), Milli Q water (200 μL), 0.005 or 0.5 mg protein/mL microsome suspension (50 μL), and a test substance solution (50 μL) were added. The mixture was preliminarily incubated at 37° C. for two minutes. The above-prepared NADPH-generating system (50 μL) was added, to thereby initiate reaction. At an arbitrary point of time, an equal volume of acetonitrile was added, to thereby terminate the reaction. The reaction mixture (50 μL) was sampled into a glass tube for determining the metabolism amount, and saturated ascorbic acid ethanol solution (25 μL) was added thereto. The sample was developed by means of a reverse phase TLC (Whatman KC18F) with 80% methanol. The TLC was brought into contact with an imaging plate, and radioactivity was detected by means of BAS-1800 (product of Fuji Film Co., Ltd.). The metabolism rate was calculated through analysis by means of GraphPad Prism Ver. 4.00 (GraphPad Software, Inc.).

[8] = In vitro metabolism rate by use of liver microsomes, rat; format: in vitro ADME, Male Wistar Rat
Experimental: as §1, §2, §3, §4

[9] = In vitro metabolism rate by use of liver microsomes, human; format: in vitro ADME
Experimental: as §1, §2, §3, §4

[10] = human, in vivo; cited from earlier work
[11] = animal PET scanner; cited from earlier work
[12] = biological target: T2, synthetic amyloid β (1-40) aggregates; conditions: for Bonding amount against amyloid β protein aggregate concentration: presence and absence of normal rat brain homogenate
Experimental: A brain tissue was removed from a normal rat, and a 5-fold amount of PBS was added to the tissue (wet state). A homogenate was produced from the mixture by use of a homogenizer. To test tubes, PBS (500 μL, in the presence of homogenate or 600 μL, in the absence of homogenate) was added. A rat brain homogenate (100 μL) was added under the presence condition of homogenate. […] Each (200 μL) of the Aβ aggregates solutions of twice-diluted series was added to each test tube, whereby reaction was initiated.
By subtracting a non-specific binding amount from the total binding amount and dividing the difference by the non-specific binding amount, an SN (Signal/Noise) ratio was calculated. The relationship between the SN ratio and amyloid β protein aggregate concentration was investigated (FIG. 2).

Amyloid β (1-40) peptide [13] = biological target: T1, Amyloid β (1-40) peptide; assay: Binding of compound 24 to amyloid β (1-40) aggregated in PBS or dissolved in purified water; conditions: for Specific binding radioactivity: amyloid β 50 nmol/L
Experimental: Separately, amyloid β (1-40) peptide HCl salt was dissolved in purified water, to thereby prepare a 100-μmol/L amyloid β (1-40) solution. A CD spectrum of each sample solution (twice diluted) was measured at room temperature (about 25° C.) in a wavelength range of 190 to 250 nm. PBS or purified water was measured as a blank. After measurement, a blank value was subtracted from a CD value of each sample, to thereby correct the base line. From the thus-corrected CD values, secondary structure analysis was performed by means of SELCON3.
Subsequently, binding ability of the compound of the invention to amyloid β (1-40) peptide dissolved in purified water or aggregated in PBS was determined in a manner similar to that employed in Test Example 3. However, a ^125I-labeled compound 24 was employed, and no rat bran homogenate was included. The employed amyloid β concentration was 50 nmol/L at reaction.

[14] = read-out: Inhibitory activity (n = 3) IC50 Mean ± S.D.

## 5-[4-(6-Iodoimidazo[1,2-a]pyridin-2-yl)phenyl]-1,3-oxazole [Example 1]
Amyloid β (1-40) peptide [1]
  IC50: 29400 nM
[2]; [14]
  IC50: 1.23 ± 0.0842 nM

## CC(=O)Nc1ccc(O)cc1 [Acetaminophen]
[3]
  LogD7.4: 0.51

## Oc1ncnc2[nH]ncc12 [Allopurinol]
[3]
  LogD7.4: −0.44

## c1ccc(-c2ccc(C(c3ccccc3)n3ccnc3)cc2)cc1 (stereo not drawn) [Bifonazole]
[3]
  LogD7.4: 4.77

## CN/C(=N/CCSCc1nc[nH]c1C)NC#N [Cimetidine]
[3]
  LogD7.4: 0.35

## Clc1cccc(Cl)c1N=C1NCCN1 [Clonidine]
[3]
  LogD7.4: 0.62

## Nc1c(/N=N/c2ccc(-c3ccc(/N=N/c4cc(S(=O)(=O)O)c5ccccc5c4N)cc3)cc2)cc(S(=O)(=O)O)c2ccccc12 [Congo Red, reference compound]
[2]
  IC50: > 5000 nM

## Ic1ccc2nc(-c3ccc(-c4cc[nH]n4)cc3)cn2c1 [Example 3, 6-Iodo-2-[4-(1H-3-pyrazolyl)phenyl]imidazo[1,2-a]pyridine]
Amyloid β (1-40) peptide [1]
  IC50: 22300 nM
[2]
  IC50: 9.72 ± 1.44 nM

## [125I]c1ccc2nc(-c3ccc(-c4cnco4)cc3)cn2c1 [Example 23, [^125I]5-[4-(6-Iodoimidazo[1,2-a]pyridin-2-yl)phenyl]-1,3-oxazole]
[4]
  Specific binding amount against β-sheet content of aggregate mixture: promoted in accordance with an increase in β-sheet content
[5]
  Bmax: 1.66 pmol/mg protein
[6]; 2 min after administration
  Radioactivity in the rat brain Mean ± SD: 1.268 ± 0.166 % I.D./g
[6]; 5 min after administration
  Radioactivity in the rat brain Mean ± SD: 1.124 ± 0.032 % I.D./g
[6]; 15 min after administration
  Radioactivity in the rat brain Mean ± SD: 0.584 ± 0.077 % I.D./g
[6]; 30 min after administration
  Radioactivity in the rat brain Mean ± SD: 0.273 ± 0.015 % I.D./g
[6]; 60 min after administration
  Radioactivity in the rat brain Mean ± SD: 0.139 ± 0.006 % I.D./g
[6]; 120 min after administration
  Radioactivity in the rat brain Mean ± SD: 0.083 ± 0.002 % I.D./g
[7]
  Rate of metabolism by liver microsomes: 0.480 ± 0.139 pmol/min/mg protein
[8]
  Rate of metabolism by liver microsomes: 0.632 ± 0.420 pmol/min/mg protein
[9]
  Rate of metabolism by liver microsomes: 0.944 ± 0.265 pmol/min/mg protein

## CC(=C(C#N)C#N)c1ccc2cc(N(C)CCF)ccc2c1 [FDDNP, reference compound]
[2]; [14]
  IC50: 1050 ± 48.8 nM

## C[C@]12CC[C@H]3[C@@H](CCC4=CC(=O)CC[C@@]43C)[C@@H]1CC[C@@H]2O [Teststeron]
[3]
  LogD7.4: 3.29

## [11CH3]Nc1ccc(-c2nc3ccc(O)cc3s2)cc1 [^11C-PIB]
[10]
  Difference in retention between AD patient groups: at most about two-fold
[11]
  Retention time, PS1/APP mice against normal mice: no difference is observed in retention time

## CN(C)c1ccc(-c2cn3cc([123I])ccc3n2)cc1 [^123I-IMPY, [^123I]6-iodo-2-(4′-dimethylamino-)phenyl-imidazo[1,2-a]pyridine, reference compound]
[12]
  Bonding amount against amyloid β protein aggregate concentration: increase in bonding amount in response to the amyloid β protein aggregate concentration

## [123I]c1ccc2nc(-c3ccc(-c4cc[nH]n4)cc3)cn2c1 [^123I-labeled product of compound 3, [^123I]6-Iodo-2-[4-(1H-3-pyrazolyl)phenyl]imidazo[1,2-a]pyridine]
[12]; compared with 123I-IMPY, presence and absence of normal rat brain homogenate (FIG. 2)
  SN (Signal/Noise) ratio: higher SN ratio
[12]
  Bonding amount against amyloid β protein aggregate concentration: increase in bonding amount in response to the amyloid β protein aggregate concentration

## [^125I]6-Iodo-2-[4-(1H-3-pyrazolyl)phenyl]imidazo[1,2-a]pyridine [Example 24]
Amyloid β (1-40) peptide [13]; Solution of amyloid β (1-40) dissolved in purified water
  Specific binding radioactivity: 6300.3 cpm
Amyloid β (1-40) peptide [13]; Suspension of amyloid β (1-40) aggregated in PBS
  Specific binding radioactivity: 125504.4 cpm
Amyloid β (1-40) peptide [13]; ratio suspension in PBS / solution in purified water
  Specific binding to aggregates (suspension) relative to dissolved amyloid β (1-40) (solution): about 20 times
[5]
  Bmax: 1.59 pmol/mg protein
[5]; 125I-labeled test compound 0.5 nmol/L
  Kd: 4.05 nM
[6]; 2 min after administration
  Radioactivity in the rat brain Mean ± SD: 0.760 ± 0.036 % I.D./g
[6]; 5 min after administration
  Radioactivity in the rat brain Mean ± SD: 0.656 ± 0.026 % I.D./g
[6]; 15 min after administration
  Radioactivity in the rat brain Mean ± SD: 0.373 ± 0.047 % I.D./g
[6]; 30 min after administration
  Radioactivity in the rat brain Mean ± SD: 0.176 ± 0.009 % I.D./g
[6]; 60 min after administration
  Radioactivity in the rat brain Mean ± SD: 0.053 ± 0.003 % I.D./g
[6]; 120 min after administration
  Radioactivity in the rat brain Mean ± SD: 0.015 ± 0.002 % I.D./g
[7]
  Rate of metabolism by liver microsomes: 0.229 ± 0.061 pmol/min/mg protein
[8]
  Rate of metabolism by liver microsomes: 0.193 ± 0.058 pmol/min/mg protein
[9]
  Rate of metabolism by liver microsomes: 0.140 ± 0.057 pmol/min/mg protein
